Counter-ions that a name gives are not always drawn.
What follows are compounds tested on γ-secretase (assay: Cellular γ-secretase assay (Aβ42 secretion)). Conditions: inhibition of Aβ42 secretion; human neuroglioma H4 cells overexpressing human APP; 22 hrs incubation; read-out: EC50 in vitro.
Assay type: cell-based
Protocol: Cellular γ-Secretase Assay
Human neuroglioma H4 cells overexpressing human APP were plated at 30,000 cells/well/200 μl in 96-well plates in IMDM media containing 10% FCS, 0.2 mg/l Hygromycin B and incubated for 2 h at 37° C., 5% CO2 prior to adding test compounds.
Compounds for testing were dissolved in 100% Me2SO yielding in a 10 mM stock solution. Typically 12 μl of these solutions were further diluted in 1000 μl of IMDM media (w/o FCS,). Sub sequential 1:1 dilutions gave a ten point dose response curve. 100 μl of each dilution was added to the cells in 96-well plates. Appropriate controls using vehicle only and reference compound were applied to this assay. The final concentration of Me2SO was 0.4%.
After incubation for 22 hrs at 37° C., 5% CO2, 50 μl supernatant was transferred into round-bottom 96-well polypropylene plates for detection of Aβ42. 50 μl assay buffer (50 mM Tris/Cl, pH 7.4, 60 mM NaCl, 0.5% BSA, 1% TWEEN 20) was added to the wells followed by the addition of 100 μl of detection antibody (ruthenylated Aβ42-specific antibody BAP15 0.0625 μg/mL in assay buffer). 50 μl of a premix of capture antibody (biotinylated 6E10 antibody, 1 μg/mL) and Steptavidin-coated magnetic beads (Dynal M-280, 0.125 mg/mL) were preincubated for 1 hr at room temperature before adding the assay plates. Assay plates were incubated on a shaker for 3 hrs at room temperature and finally read in the Bioveris M8 Analyser according to the manufacturer's instructions (Bioveris).
EC50 values for inhibition of Aβ42 secretion were calculated by nonlinear regression fit analysis using XLfit 4.0 software (IDBS).

Row | EC50 | SMILES
1 | 320 nM | CCN1Cc2cnc(Nc3ccc(-n4cnc(C)c4)c(OC)c3)nc2C(c2ccccc2)C1 (centres unmarked) [Example 44, (6-Ethyl-8-phenyl-5,6,7,8-tetrahydro-pyrido[4,3-d]pyrimidin-2-yl)-[3-methoxy-4-(4-methyl-imidazol-1-yl)-phenyl]-amine]
2 | 70 nM | COc1cc(Nc2nc3c(s2)CN(Cc2ccccc2)CC3c2ccc(Cl)c(F)c2)ccc1-n1cnc(C)c1 (centres unmarked) [Example 24, [5-Benzyl-7-(4-chloro-3-fluorophenyl)-4,5,6,7-tetrahydro-thiazolo[5,4-c]pyridin-2-yl]-[3-methoxy-4-(4-methyl-imidazol-1-yl)-phenyl]-amine]
3 | 470 nM | COc1cc(Nc2ncc3c(n2)C(C2CCCCC2)CCC3)ccc1-n1cnc(C)c1 (centres unmarked) [Example 71, (8-Cyclohexyl-5,6,7,8-tetrahydro-quinazolin-2-yl)-[3-methoxy-4-(4-methyl-imidazol-1-yl)-phenyl]-amine]
4 | 50 nM | Cc1cn(-c2ccc(Nc3nc4c(s3)CCCC4c3ccccc3)cc2F)cn1 (centres unmarked) [Example 5, [3-Fluoro-4-(4-methyl-imidazol-1-yl)-phenyl]-(4-phenyl-4,5,6,7-tetrahydro-benzothiazol-2-yl)-amine]
5 | 80 nM | COc1cc(Nc2nc3c(s2)CCCC3c2cc(Cl)ccc2Cl)ccc1-n1cnc(C)c1 (centres unmarked) [Example 26, [4-(2,5-Dichloro-phenyl)-4,5,6,7-tetrahydro-benzothiazol-2-yl]-[3-methoxy-4-(4-methyl-imidazol-1-yl)-phenyl]-amine]
6 | 70 nM | COc1cc(Nc2nc3c(s2)CN(Cc2ccccc2)CC3c2ccccc2Cl)ccc1-n1cnc(C)c1 (centres unmarked) [Example 23]
7 | 90 nM | COc1cc(Nc2nc3c(s2)CCCC3c2ccc(Cl)c(C(F)(F)F)c2)ccc1-n1cnc(C)c1 (centres unmarked) [Example 16, [4-(4-Chloro-3-trifluoromethyl-phenyl)-4,5,6,7-tetrahydro-benzothiazol-2-yl]-[3-methoxy-4-(4-methyl-imidazol-1-yl)-phenyl]-amine]
8 | 100 nM | COc1cc(Nc2nc3c(s2)CCCC3c2ccc(OC(F)(F)F)cc2)ccc1-n1cnc(C)c1 (centres unmarked) [Example 10, [3-Methoxy-4-(4-methyl-imidazol-1-yl)-phenyl]-[4-(4-trifluoromethoxy-phenyl)-4,5,6,7-tetrahydro-benzothiazol-2-yl]-amine]
9 | 250 nM | COc1cc(Nc2ncc3c(n2)C(c2cc(F)c(F)c(F)c2)CCC3)ccc1-n1cnc(C)c1 (centres unmarked) [Example 69, [3-Methoxy-4-(4-methyl-imidazol-1-yl)-phenyl]-[8-(3,4,5-trifluoro-phenyl)-5,6,7,8-tetrahydro-quinazolin-2-yl]-amine]
10 | 500 nM | COc1cc(Nc2ncc3c(n2)C(c2ccccc2)CN(C(C)=O)C3)ccc1-n1cnc(C)c1 (centres unmarked) [Example 42, 1-{2-[3-Methoxy-4-(4-methyl-imidazol-1-yl)-phenylamino]-8-phenyl-7,8-dihydro-5H-pyrido[4,3-d]pyrimidin-6-yl}-ethanone]
11 | 70 nM | COc1cc(Nc2nc3c(s2)CCCC3c2cc(Cl)cc(Cl)c2)ccc1-n1cnc(C)c1 (centres unmarked) [Example 27, [4-(3,5-Dichloro-phenyl)-4,5,6,7-tetrahydro-benzothiazol-2-yl]-[3-methoxy-4-(4-methyl-imidazol-1-yl)-phenyl]-amine]
12 | 100 nM | COc1cc(Nc2nc3c(s2)CCCC3c2ccc(Cl)cc2Cl)ccc1-n1cnc(C)c1 (centres unmarked) [Example 25, [4-(2,4-Dichloro-phenyl)-4,5,6,7-tetrahydro-benzothiazol-2-yl]-[3-methoxy-4-(4-methyl-imidazol-1-yl)-phenyl]-amine]
13 | 212 nM | COc1cc(Nc2nc3c(s2)CCCC3c2ccccc2)ccc1-c1sc(C)nc1C (centres unmarked) [Example 93, [4-(2,4-Dimethyl-thiazol-5-yl)-3-methoxy-phenyl]-(4-phenyl-4,5,6,7-tetrahydro-benzothiazol-2-yl)-amine]
14 | 120 nM | COc1cc(Nc2nc3c(s2)CCCC3c2cc(F)cc(F)c2)ccc1-n1cnc(C)c1 (centres unmarked) [Example 28, [4-(3,5-Difluoro-phenyl)-4,5,6,7-tetrahydro-benzothiazol-2-yl]-[3-methoxy-4-(4-methyl-imidazol-1-yl)-phenyl]-amine]
15 | 320 nM | c1ccc(C2CCCc3sc(Nc4ccc(-c5ccncc5)cc4)nc32)cc1 (centres unmarked) [Example 94, (4-Phenyl-4,5,6,7-tetrahydro-benzothiazol-2-yl)-(4-pyridin-4-yl-phenyl)-amine]
16 | 100 nM | COc1cc(Nc2nc3c(s2)CCCC3c2ccc(C)c(C(F)(F)F)c2)ccc1-n1cnc(C)c1 (centres unmarked) [Example 9, [3-Methoxy-4-(4-methyl-imidazol-1-yl)-phenyl]-[4-(4-methyl-3-trifluoromethyl-phenyl)-4,5,6,7-tetrahydro-benzothiazol-2-yl]-amine]

Row | EC50 | SMILES
17 | 240 nM | COc1cc(Nc2nc3c(s2)CCCC3c2ccccc2)ccc1-c1cnn(C)c1 (centres unmarked) [Example 91, [3-Methoxy-4-(1-methyl-1H-pyrazol-4-yl)-phenyl]-(4-phenyl-4,5,6,7-tetrahydro-benzothiazol-2-yl)-amine]
18 | 120 nM | Cc1cn(-c2ccc(Nc3nc4c(s3)CCCC4c3ccccc3)cc2C#N)cn1 (centres unmarked) [Example 21, 2-(4-Methyl-imidazol-1-yl)-5-(4-phenyl-4,5,6,7-tetrahydro-benzothiazol-2-ylamino)-benzonitrile]
19 | 130 nM | Cc1cn(-c2ccc(Nc3nc4c(s3)CCCC4c3ccccc3)cc2)cn1 (centres unmarked) [Example 18, [4-(4-Methyl-imidazol-1-yl)-phenyl]-(4-phenyl-4,5,6,7-tetrahydro-benzothiazol-2-yl)-amine]
20 | 252 nM | COc1cc(Nc2nc3c(s2)CCCC3c2ccccc2)ccc1-c1cnc(C)s1 (centres unmarked) [Example 92, [3-Methoxy-4-(2-methyl-thiazol-5-yl)-phenyl]-(4-phenyl-4,5,6,7-tetrahydro-benzothiazol-2-yl)-amine]
21 | 100 nM | COc1cc(Nc2nc3c(s2)CCCC3c2cc(C(F)(F)F)cc(C(F)(F)F)c2)ccc1-n1cnc(C)c1 (centres unmarked) [Example 29, [4-(3,5-Trifluoromethyl-phenyl)-4,5,6,7-tetrahydro-benzothiazol-2-yl]-[3-methoxy-4-(4-methyl-imidazol-1-yl)-phenyl]-amine]
22 | 130 nM | Cc1cn(-c2ccc(Nc3ncc4c(n3)C(c3ccccc3)CCC4)cc2F)cn1 (centres unmarked) [Example 38, [3-Fluoro-4-(4-methyl-imidazol-1-yl)-phenyl]-(8-phenyl-5,6,7,8-tetrahydro-quinazolin-2-yl)-amine]
23 | 120 nM | COc1cc(Nc2nc3c(s2)CCCC3c2cc(C)ccc2C)ccc1-n1cnc(C)c1 (centres unmarked) [Example 13, [4-(2,5-Dimethyl-phenyl)-4,5,6,7-tetrahydro-benzothiazol-2-yl]-[3-methoxy-4-(4-methyl-imidazol-1-yl)-phenyl]-amine]
24 | 340 nM | COc1cc(Nc2ncc3c(n2)C(c2ccccc2)CNC3)ccc1-n1cnc(C)c1 (centres unmarked) [Example 41, [3-Methoxy-4-(4-methyl-imidazol-1-yl)-phenyl]-(8-phenyl-5,6,7,8-tetrahydro-pyrido[4,3-d]pyrimidin-2-yl)-amine hydrochloride]
25 | 70 nM | COc1cc(Nc2nc3c(s2)CCCC3c2ccccc2Cl)ccc1-n1cnc(C)c1 (centres unmarked) [Example 14, [4-(2-Chloro-phenyl)-4,5,6,7-tetrahydro-benzothiazol-2-yl]-[3-methoxy-4-(4-methyl-imidazol-1-yl)-phenyl]-amine]
26 | 450 nM | COc1cc(Nc2ncc3c(n2)C(c2ccccc2)CN(C(C)C)C3)ccc1-n1cnc(C)c1 (centres unmarked) [Example 80, (6-Isopropyl-8-phenyl-5,6,7,8-tetrahydro-pyrido[4,3-#d!]pyrimidin-2-yl)-[3-methoxy-4-(4-methyl-imidazol-1-yl)-phenyl]-amine]
27 | 270 nM | COc1cc(Nc2ncc3c(n2)C(c2ccccc2)CN(C(=O)OC(C)(C)C)C3)ccc1-n1cnc(C)c1 (centres unmarked) [Example 40, 2-[3-Methoxy-4-(4-methyl-imidazol-1-yl)-phenylamino]-8-phenyl-7,8-dihydro-5H-pyrido[4,3-d]pyrimidine-6-carboxylic acid tert.-butyl ester]
28 | 130 nM | Cc1ncc(-c2ccc(Nc3nc4c(s3)CCCC4c3ccccc3)cc2)o1 (centres unmarked) [Example 68, [4-(2-Methyl-oxazol-5-yl)-phenyl]-(4-phenyl-4,5,6,7-tetrahydro-benzothiazol-2-yl)-amine]
29 | 90 nM | COc1cc(Nc2nc3c(s2)CCCC3c2ccc(C)c(F)c2)ccc1-n1cnc(C)c1 (centres unmarked) [Example 15]
30 | 480 nM | COc1cc(Nc2ncc3c(n2)C(c2ccccc2)CCC3)ccc1-n1cnc(C)c1 (centres unmarked) [Example 39, [3-Methoxy-4-(4-methyl-imidazol-1-yl)-phenyl]-(8-phenyl-5,6,7,8-tetrahydro-quinazolin-2-yl)-amine]
31 | 300 nM | COc1cc(Nc2nc3c(s2)CCCC3c2ccccc2)ccc1-c1cnco1 (centres unmarked) [Example 1, (3-Methoxy-4-oxazol-5-yl-phenyl)-(4-phenyl-4,5,6,7-tetrahydro-benzothiazol-2-yl)-amine]
32 | 450 nM | CCOC1CCCc2cnc(Nc3ccc(-n4cnc(C)c4)c(OC)c3)nc21 (centres unmarked) [Example 83, (8-Ethoxy-5,6,7,8-tetrahydro-quinazolin-2-yl)-[3-methoxy-4-(4-methyl-imidazol-1-yl)-phenyl]-amine]

Source: patent publication US7923450B2, “Modulators for amyloid beta” (Hoffmann-La Roche Inc., priority 2008, dated 2011)
